According to patent US12059464B2, “Combination therapy involving antibodies against Claudin 18.2 for treatment of cancer” (Astellas Pharma Inc., priority 2012, dated 2024):

What was measured:
KatoIII cells [1] = assay: KatoIII cells pretreated with Irinotecan or Docetaxel: cell growth and cell cycle arrest; assay type: cell-based, human; conditions: KatoIII cells pretreated for 4 days
Description: Cell cycle stages were determined based on measurement of cellular DNA content. This allows one to discriminate between cells in the G1-, S- or G2-phase of the cell cycle. In the S-phase DNA duplication occurs whereas in the G2-phase cells grow and prepare for mitosis. Cell cycle analysis was done using the CycleTEST PLUS DNA Reagent Kit from BD Biosciences following the manufacturer's protocol. Flow cytometry acquisition and analysis were performed by using BD FACS CantoII (BD Biosciences) and FlowJo (Tree Star) software.
KatoIII cells were pretreated for 4 days with Irinotecan or Docetaxel and analysed for CLDN18.2 expression and cell cycle arrest.

KatoIII cells [2] = assay: IMAB362-induced ADCC (luciferase) on KatoIII cells pretreated with Irinotecan, Docetaxel or Cisplatin; assay type: cell-based, human; conditions: KatoIII pretreated for 3 days; for level of viable cells compared to medium cultivated target cells: Irinotecan 1000 ng/ml, Docetaxel 5 ng/ml, Cisplatin 2000 ng/ml; for effect of pretreatment on potency of IMAB362 to induce ADCC: human PBMC effectors
Description: Peripheral blood mononuclear cells (PBMCs) including NK cells, monocytes, mononuclear cells or other effector cells from healthy human donors were purified by Ficoll Hypaque density centrifugation. Washed effector cells were seeded in X-Vivo medium. KatoIII cells which express CLDN18.2 endogenously and are of gastric origin were used as target cells in this setting. Target cells stably expressed luciferase, lucifer yellow, which is oxidized by viable cells only.

KatoIII cells [3] = assay: Cell cycle analysis and CLDN18.2 surface expression of KatoIII cells cultivated with cytostatic compounds; conditions: for cell cycle arrest (phase of the cell cycle): KatoIII cells cultivated with cytostatic compound, DNA content by flow cytometry; for CLDN18.2 expression: KatoIII cells, cultivation for 96 hours
Description: Epirubicin (Pfizer) was tested at a concentration of 10 or 100 ng/ml, 5-FU (Neofluor from NeoCorp AG) was tested at a concentration of 10 or 100 ng/ml, and oxaliplatin (Hospira) was tested at a concentration of 50 or 500 ng/ml.
As secondary reagent goat-anti-huIgG-APC from Dianova was used.
Cell cycle stages were determined based on measurement of cellular DNA content. […] Cell cycle analysis was done using the CycleTEST PLUS DNA Reagent Kit from BD Biosciences following the manufacturer's protocol. Flow cytometry acquisition and analysis were performed by using BD FACS CantoII (BD Biosciences) and FlowJo (Tree Star) software.

[4] = tested on: HEK293~CLDN18.2 transfectants; assay: Early treatment of HEK293~CLDN18.2 tumor xenografts; assay type: in vivo, nude mice; conditions: isotype control, 200 μg twice per week for 6 weeks
Source text: Moreover, advanced tumor treatment experiments were initiated up to 9 days after tumor cell inoculation when tumors had reached volumes of about 60-120 mm^3.
Nude mice were subcutaneously inoculated with 1×10^7 HEK293˜CLDN18.2 transfectants. Treatment of 10 mice per group started 3 days after tumor inoculation. […] Not only time to death was prolonged, but 4 of 10 mice survived the entire observation period of 210 days.

NUGC-4 xenografts = assay: In vivo tumor targeting of Dyelight 680-labeled antibodies (fluorescence imaging); design: species or system nude mice; conditions: time not stated

Compound	claudin18.2 expression compared to medium cultivated cells (KatoIII cells [2])	level of viable cells compared to medium cultivated target cells (KatoIII cells [2])	effect of pretreatment on potency of IMAB362 to induce ADCC (KatoIII cells [2])	cell cycle arrest (phase of the cell cycle) (KatoIII cells [3])	other results
CC(=O)O[C@@]12CO[C@@H]1C[C@H](O)[C@@]1(C)C(=O)[C@H](O)C3=C(C)[C@@H](OC(=O)[C@H](O)[C@@H](NC(=O)OC(C)(C)C)c4ccccc4)C[C@@](O)([C@@H](OC(=O)c4ccccc4)[C@H]21)C3(C)C [Docetaxel, docetaxel]	increased	lower level of viable cells	augmented the potency of IMAB362 to induce ADCC	–	cell cycle arrest (phase) (KatoIII cells [1]): cell cycle arrest in the G2-phase; inhibition of cell growth (KatoIII cells [1]): dose dependent inhibition of cell growth
CCc1c2c(nc3ccc(OC(=O)N4CCC(N5CCCCC5)CC4)cc13)-c1cc3c(c(=O)n1C2)COC(=O)[C@]3(O)CC [Irinotecan, (S)-4,11-diethyl-3,4,12,14-tetrahydro-4-hydroxy-3,14-dioxo1H-pyrano[3′,4′:6,7]-indolizino[1,2-b]quinolin-9-yl-[1,4′bipiperidine]-1′-carboxylate]	increased	lower level of viable cells	augmented the potency of IMAB362 to induce ADCC	–	cell cycle arrest (phase) (KatoIII cells [1]): cell cycle arrest in the S/G2-phase; inhibition of cell growth (KatoIII cells [1]): dose dependent inhibition of cell growth
COc1cccc2c1C(=O)c1c(O)c3c(c(O)c1C2=O)C[C@@](O)(C(=O)CO)C[C@@H]3O[C@H]1C[C@H](N)[C@@H](O)[C@H](C)O1 [Epirubicin]	–	–	–	cell cycle arrest predominantly in the G2-phase	CLDN18.2 expression (KatoIII cells [3]): stabilize CLDN18.2-expression
N.N.[Cl][Pt][Cl] [Cisplatin, cis-diamminedichloroplatinum(II)]	increased	lower level of viable cells	augmented the potency of IMAB362 to induce ADCC	–	–
infliximab: isotype control antibody [reference compound]	–	–	–	–	time within which all mice died [4]: 70 to 80 days
O=C1[O][Pt]2([NH][C@@H]3CCCC[C@H]3[NH]2)[O]C1=O [Oxaliplatin, [(1R,2R)-cyclohexane-1,2-diamine](ethanedioato-O,O′)platinum(II)]	–	–	–	enrichment of cells predominantly in the G1- and G2-phases	–
rituximab: Dyelight 680-labeled negative control antibody (NUGC-4 negative for CD20) [reference compound]	–	–	–	–	signal of labeled antibody (negative control, NUGC-4 negative for CD20) (NUGC-4 xenografts): No signal is detected
O=c1[nH]cc(F)c(=O)[nH]1 [5-FU, 5-fluoro-1H-pyrimidine-2,4-dione]	–	–	–	blocked predominantly in the S-phase	CLDN18.2 expression (KatoIII cells [3]): stabilize CLDN18.2-expression
